Test results reported in publication PMC4284516 (Scientific Reports, 2015).

Key:
[1] = system: mice; details: cited from earlier work
[2] = system: MAGL over FAAH; details: cited from earlier work
[3] = system: Swiss mice; assay: Novel object recognition task
[4] = system: NMRI mice; assay: Y-maze test; format: in vivo; details: 1.5 mg/kg, i.p.
[5] = target: T1, human recombinant MAGL (rhMAGL) (Homo sapiens, UniProt Q99685); assay: MAGL biochemical assay; details: read-out: IC50, rhMAGL; 4-nitrophenylacetate substrate; N = 3
T1 sequence (Q99685 1-303): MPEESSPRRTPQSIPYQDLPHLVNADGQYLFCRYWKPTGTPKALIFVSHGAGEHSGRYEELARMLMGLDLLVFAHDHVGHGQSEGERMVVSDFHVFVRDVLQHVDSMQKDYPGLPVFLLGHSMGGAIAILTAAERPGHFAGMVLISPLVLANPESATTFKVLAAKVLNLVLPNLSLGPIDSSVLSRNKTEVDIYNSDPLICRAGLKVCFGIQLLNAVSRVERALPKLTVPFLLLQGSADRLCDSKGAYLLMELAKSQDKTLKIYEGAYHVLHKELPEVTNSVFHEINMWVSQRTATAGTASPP

[6] = system: OF1 mice; assay: Mouse tetrad experiments; details: 15 mg/kg i.p.
[7] = system: OF1 mice; assay: Elevated plus-maze test; details: diazepam 3 mg/kg p.o., 60 min before testing
[8] = system: OF1 mice; assay: Pentylenetetrazol; details: diazepam 3 mg/kg i.p.
[9] = system: OF1 mice; assay: 6-Hz electroshock-induced seizures; format: in vivo; details: levetiracetam 20 mg/kg i.p.
[10] = system: PBQ-induced writhing in OF1 mice; assay: Phenylbenzoquinone; format: in vivo; details: combined with SAR127303 3 mg/kg p.o.
[11] = system: rat hippocampal slices; assay: [3H]ACh release evoked by electrical depolarisation in hippocampal slices; format: cell-based, Sprague-Dawley rats; details: rimonabant 10^−7 mol/L

O=C(Oc1ccc([N+](=O)[O-])cc1)N1CCC(C(O)(c2ccc3c(c2)OCO3)c2ccc3c(c2)OCO3)CC1 [JZL184]
dose impairing MWM performance (dose that also inhibits FAAH) [1]: 40 mg/kg

O=C(OC(C(F)(F)F)C(F)(F)F)N1CCC(C(O)(c2ccc3c(c2)OCO3)c2ccc3c(c2)OCO3)CC1 [KML29]
selectivity for MAGL over FAAH and most other serine hydrolases [2]: > 100 fold

C[C@]12N[C@H](Cc3ccccc31)c1ccccc12 [MK-801]
novelty index ratio versus control vehicle ([3]; 0.125 mg/kg): significantly reduced

c1ccc(C2(N3CCCCC3)CCCCC2)cc1 [PCP]
spontaneous alternation versus vehicle [4]: significant reduction

COc1ccc2c(C3COC(CCCNC(=O)OCC(N)=O)OC3)cccc2c1 (stereo not shown) [SSR411298]
IC50 [5]: > 10 µM

Cc1c(C(=O)c2cccc3ccccc23)c2cccc3c2n1[C@H](CN1CCOCC1)CO3 [WIN55,512-2]
antinociception in the tail-flick test [6]: significant antinociceptive
catalepsy [6]: cataleptic
duration of antinociceptive, hypothermic and cataleptic effects [6]: at least 4 hours
hypothermia [6]: hypothermic
locomotor activity [6]: decreased significantly

CN1C(=O)CN=C(c2ccccc2)c2cc(Cl)ccc21 [diazepam]
percentage of time in open arms [7]: opposite effects
protection in the PTZ test [8]: full protection

CC[C@@H](C(N)=O)N1CCCC1=O [levetiracetam]
protection in the 6-Hz test [9]: full protection

Cc1c(C(=O)NN2CCCCC2)nn(-c2ccc(Cl)cc2Cl)c1-c1ccc(Cl)cc1 [rimonabant]
blockade of the anti-writhing effects of SAR127303 [10]: blocked
novelty index ratio when coadministered with SAR127303 ([3]; rimonabant 3 mg/kg + SAR127303 1 mg/kg): significantly different from chance level
reversal of the effect of 2-AG at 10^−8 mol/L on [3H]-ACh release [11]: completely reversed
